Data reported in US10166229B2, “Compounds and methods for the treatment of cancer” (The Board of Trustees of the University of Illinois, priority 2005, dated 2019).

What was measured:
HL-60 cell line = assay: IC50 of PAC-1 derivatives in HL-60 cell line (Table 5); assay type: cell-based; details: for Fold better than PAC-1: HL-60 IC50 relative to PAC-1; for IC50: Homo sapiens, HL-60, Table 5
From the text: The results are indicated in Table 5 (where L- and R-designations refer to structures shown in the AX and BX series above, respectively).

procaspase-3 [1] = target: T1, procaspase-3 (Homo sapiens (Human), UniProt P42574); assay: In vitro activation of purified procaspase-3 (activation curves, Ac-DEVD-pNA); assay type: biochemical; details: for EC50: Table 3, read-out: EC50 (μM) for procaspase-3 activation; for Activity (direct activation of purified procaspase-3 in vitro): Table 2
T1 sequence (P42574 whole entry): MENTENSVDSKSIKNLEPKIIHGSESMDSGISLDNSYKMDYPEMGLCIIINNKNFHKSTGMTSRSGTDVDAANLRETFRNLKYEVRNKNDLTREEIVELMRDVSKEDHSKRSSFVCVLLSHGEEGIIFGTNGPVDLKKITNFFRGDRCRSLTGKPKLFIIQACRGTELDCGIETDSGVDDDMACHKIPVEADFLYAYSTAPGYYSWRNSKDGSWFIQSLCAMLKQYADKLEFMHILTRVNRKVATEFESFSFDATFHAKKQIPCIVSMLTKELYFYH
Experimental: Activation curves. […] The plate was read every 2 minutes at 405 nm for 2 hours in a Spectra Max Plus 384 well plate reader. The slope of the linear portion for each well was determined and the fold increase in activation from non-treated control wells was calculated. […]

HL-60 cells [2] = assay: Cell death induction IC50 (MTS) in HL-60; assay type: cell-based, human
procaspase-3 [3] = target: T1, procaspase-3; assay: Western blot of in vitro procaspase-3 activation by DX compounds; assay type: biochemical; details: 50 micromolar compound, about 35 nanomolar procaspase-3, 8 hr
Experimental: Certain compounds were also tested for the ability to effect in vitro activation of procaspase-3.

HL-60 cells [4] = assay: Apoptosis induction assay in HL-60 cells, 72 hrs (Table 6); assay type: cell-based
Experimental: Compounds DX1-DX17 were tested using the HL-60 cell line for the ability to effect apoptosis, and IC50 values were determined. Activity levels of compounds from assays of 72 hrs duration with HL-60 cells are shown in Table 6 and along with structures in FIG. 12.

[5] = tested on: B16-F10 melanoma cell line; assay: Cell death IC50 (MTS) in B16-F10; assay type: cell-based; details: etoposide, 24 hours; read-out: IC50 for inducing death, B16-F10
U-937 = assay: Cell death IC50 (MTS) in U-937; assay type: cell-based; details: etoposide, 24 hours; read-out: IC50 for inducing death, U-937
[6] = tested on: Hs 578t breast cancer cell line; assay: Cell death IC50 (MTS) in Hs 578t; assay type: cell-based; details: etoposide, 24 hours; read-out: IC50 for inducing death, Hs 578t
[7] = tested on: CRL-1872 melanoma cell line; assay: Cell death IC50 (MTS) in CRL-1872; assay type: cell-based; details: etoposide, 24 hours; read-out: IC50 for inducing death, CRL-1872
[8] = tested on: NCI-H226 lung cancer cell line; assay: Cell death IC50 (MTS) in NCI-H226; assay type: cell-based; details: etoposide, 24 hours; read-out: IC50 for inducing death, NCI-H226
SK-N-SH = assay: Cell death IC50 (MTS) in SK-N-SH; assay type: cell-based; details: etoposide, 24 hours; read-out: IC50 for inducing death, SK-N-SH
PC-12 = assay: Cell death IC50 (MTS) in PC-12; assay type: cell-based; details: etoposide, 24 hours; read-out: IC50 for inducing death, PC-12
[9] = tested on: UACC-62 melanoma cell line; assay: Cell death IC50 (MTS) in UACC-62; assay type: cell-based; details: etoposide, 24 hours; read-out: IC50 for inducing death, UACC-62
[10] = Homo sapiens, HL-60, Table 3, read-out: IC50 (μM) for death induction in HL-60 cells

| SMILES | Fold better than PAC-1 (HL-60 cell line) | IC50 (HL-60 cell line) [µM] | EC50 (procaspase-3 [1]) [µM] | IC50 (HL-60 cells [2]; [10]) [µM] | other results |
| --- | --- | --- | --- | --- | --- |
| CC(C)(C)c1ccc(CN2CCN(CC(=O)N/N=C/c3cc(C(C)(C)C)cc(C(C)(C)C)c3O)CC2)cc1 [Compound L02R06] | 8.4-fold | 6.53 | – | – | – |
| CC(C)(C)c1cc(/C=N/NC(=O)CN2CCN(Cc3ccccc3)CC2)c(O)c(C(C)(C)C)c1 [Compound L01R06] | 9.7-fold | 5.63 | – | – | – |
| CC(C)(C)c1cc(/C=N/NC(=O)CN2CCN(Cc3ccc(CCc4ccccc4)cc3)CC2)c(O)c(C(C)(C)C)c1 [Compound L08R06] | 10.3-fold | 5.31 | – | – | – |
| C=CCc1cccc(/C=N/NC(=O)CN2CCN(Cc3ccc(C(C)(C)C)cc3)CC2)c1O [Compound L02R03] | 12.6-fold | 4.34 | – | – | – |
| c1ccc(CN2CCNCC2)cc1 [drawing 33] | – | – | > 50 | > 100 | – |
| CCOC(=O)CN1CCN(Cc2ccccc2)CC1 | – | – | > 50 | > 100 | – |
| C=CCc1cccc(/C=N/NC(=O)CN2CCC(Cc3ccccc3)CC2)c1O [DX11] | – | – | – | – | in vitro activation of procaspase-3 (Western blot) relative to control (procaspase-3 [3]): substantial activity levels; IC50 (HL-60 cells [4]): 3.2 µM |
| COc1cc([C@@H]2c3cc4c(cc3[C@@H](O[C@@H]3O[C@@H]5CO[C@@H](C)O[C@H]5[C@H](O)[C@H]3O)[C@H]3COC(=O)[C@H]23)OCO4)cc(OC)c1O [etoposide] | – | – | – | – | IC50 [5]: > 50 µM; IC50 (U-937): < 1 µM; IC50 [6]: > 50 µM; IC50 [7]: > 50 µM; IC50 [8]: > 50 µM; IC50 (SK-N-SH): < 1 µM; IC50 (HL-60 cells [2]; etoposide, 24 hours, read-out: IC50 for inducing death, HL-60): < 1 µM; IC50 (PC-12): < 1 µM; IC50 [9]: > 50 µM |
| CCOC(=O)CN1CCNCC1 | – | – | > 50 | > 100 | – |
| c1ccc(CN2CCN(Cc3ccccc3)CC2)cc1 | – | – | > 50 | > 100 | – |
| C=CCc1cccc(/C=N/NC(=O)CN2CCN(Cc3ccc(OCc4ccccc4)c(OCc4ccccc4)c3)CC2)c1O [Compound L09R03] | 11.3-fold | 4.82 | – | – | – |
| c1ccc(CN2CCNCC2)cc1 [Compound 2] | – | – | – | – | Activity (direct activation of purified procaspase-3 in vitro) (procaspase-3 [1]): Inactive |
| O=C(CN1CCN(Cc2ccc(OCc3ccccc3)c(OCc3ccccc3)c2)CC1)N/N=C/c1c(O)ccc2ccccc12 [Compound L09R08] | 22.6-fold | 2.42 | – | – | – |
| NNC(=O)CN1CCN(Cc2ccccc2)CC1 [Compound 4] | – | – | – | – | Activity (direct activation of purified procaspase-3 in vitro) (procaspase-3 [1]): Inactive |
| O=C(CN1CCN(Cc2ccccc2)CC1)N/N=C/c1ccccc1 [drawing 26] | – | – | > 50 | > 100 | – |
| C/C=N/NC(=O)CN1CCN(Cc2ccccc2)CC1 | – | – | > 50 | > 100 | – |
| O=C(CN1CCNCC1)N/N=C/c1ccccc1O | – | – | > 50 | > 100 | – |
| CC(C)(C)c1cc(/C=N/NC(=O)CN2CCN(Cc3ccc(OCc4ccccc4)c(OCc4ccccc4)c3)CC2)c(O)c(C(C)(C)C)c1 [Compound L09R06] | 13.1-fold | 4.17 | – | – | – |
| O=C(CN1CCN(Cc2ccccc2)CC1)N/N=C/c1ccccc1O [de-allyl PAC-1] | – | – | – | – | IC50 (HL-60 cells [4]; Homo sapiens): 8.7 µM |
| NNC(=O)CN1CCN(Cc2ccccc2)CC1 [drawing 29] | – | – | > 50 | > 100 | – |
| CN1CCN(CC(=O)N/N=C/c2ccccc2O)CC1 [Compound 6] | – | – | – | – | Activity (direct activation of purified procaspase-3 in vitro) (procaspase-3 [1]): Inactive |
| O=C(CN1CCN(Cc2ccccc2)CC1)N/N=C/c1ccccc1 [Compound 7] | – | – | – | – | Activity (direct activation of purified procaspase-3 in vitro) (procaspase-3 [1]): Inactive |
